Test system: Patients diagnosed with unipolar depression
Assay: Clinical follow-up of patients with the SIGH-D-17 scale (treatment as usual vs guided by the Clinical Decision Support System), case examples
Type: in vivo
Conditions: for response to treatment regimen (patient history): Example 1: regimen of escitalopram, sertraline, risperidone, clonazepam and lamotrigine
Protocol: Patients diagnosed with unipolar depression were recruited and divided into two groups. The first group Treatment as Usual (TAU) received treatment according to psychiatry clinical guidelines. The second group received Clinical Decision Support System Guided (CCDSg) additional support from the method for selecting neuropsychiatric drugs. Follow-up was conducted using the SIGH-D-17 scale in both groups at the beginning of treatment and 8 and 12 weeks. […]
Based on the algorithm results, it was decided to discontinue the previous pharmacological regimen and initiate a new one consisting of desvenlafaxine and aripiprazole. A significant response was observed within 8 weeks of treatment initiation (69% reduction in SIGH-D-17 scale).
While awaiting the results of the application of this method, pharmacological treatment with sertraline was initiated. […] These findings are consistent with the genetic variations found (alteration of the CYP2C19 enzyme). Subsequently, and with the results of the application of this method, pharmacological treatment with vortioxetine was implemented, achieving remission at 12 weeks.
(53% reduction in SIGH-D-17 scale).

[1] = Example 1: person, severe unipolar depression, new regimen consisting of desvenlafaxine and aripiprazole, within 8 weeks of treatment initiation
[2] = Example 3: person, treatment-resistant unipolar depression
[3] = Example 4: person, depressive episode

Row | SMILES | response (pharmacological history) [2] | response to treatment regimen (patient history) | further results
1 | O=C1CCc2ccc(OCCCCN3CCN(c4cccc(Cl)c4Cl)CC3)cc2N1 [Aripiprazole] | – | – | reduction in SIGH-D-17 scale [1]: 69%
2 | CN(C)CCCN1c2ccccc2CCc2ccc(Cl)cc21 [Clomipramine] | no response | – | –
3 | COc1ccc(C(CN(C)C)C2(O)CCCCC2)cc1 (stereo not shown) [Venlafaxine] | – | – | response (pharmacological history) [3]: ineffective
4 | O=C1CN=C(c2ccccc2Cl)c2cc([N+](=O)[O-])ccc2N1 [clonazepam] | – | subtherapeutic response | response (pharmacological history) [3]: poor response
5 | O=c1ccc2ccc(OCCCCN3CCN(c4cccc5sccc45)CC3)cc2[nH]1 [Brexpiprazole] | – | – | reduction in SIGH-D-17 scale (Example 3: person, treatment-resistant unipolar depression, quetiapine gradually replaced by brexpiprazole, at 8 weeks of treatment): 53%
6 | Cc1nc2n(c(=O)c1CCN1CCC(c3noc4cc(F)ccc34)CC1)CCCC2 [Risperidone] | – | subtherapeutic response | –
7 | Nc1nnc(-c2cccc(Cl)c2Cl)c(N)n1 [lamotrigine] | – | subtherapeutic response | response (pharmacological history) [3]: ineffective
8 | Cc1ccc(Sc2ccccc2N2CCNCC2)c(C)c1 [Vortioxetine] | no response | – | reduction in SIGH-D-17 scale (Example 2: person, mild unipolar depression, vortioxetine, remission at 12 weeks): 67%
9 | N#Cc1ccc2[nH]cc(CCCCN3CCN(c4ccc5oc(C(N)=O)cc5c4)CC3)c2c1 [Vilazodone] | no response | – | –
10 | CN(C)CC(c1ccc(O)cc1)C1(O)CCCCC1 (stereo not shown) [Desvenlafaxine] | no response | – | reduction in SIGH-D-17 scale [1]: 69%
11 | CN(C)CCC[C@@]1(c2ccc(F)cc2)OCc2cc(C#N)ccc21 [Escitalopram] | no response | subtherapeutic response | –
12 | CN(C)C(=O)N[C@H]1CC[C@H](CCN2CCN(c3cccc(Cl)c3Cl)CC2)CC1 [Cariprazine] | no response | – | –
13 | CN[C@H]1CC[C@@H](c2ccc(Cl)c(Cl)c2)c2ccccc21 [Sertraline] | – | subtherapeutic response | side effects (Example 2: CYP2C19 intermediate metabolizer, treatment had to be discontinued): side effects at low doses
